Seven molecules from patent US20070213310A1, “Prodrugs for Use as Ophthalmic Agents” (priority 2002, published 2007) can be followed below.

The nature of data set [1]: logP measured by the shake-flask method. Type of data set: physicochemical.
The nature of data set [2]: Lipid peroxidation inhibition, ferric thiocyanate (FTC) method. To be noted: inhibition of lipid peroxidation. In kind it is biochemical. From the text: (§1) Because lipid peroxidation (LPO) is a common marker of damage induced by reactive oxygen species (ROS) (Gutteridge JMC, “Lipid-peroxidation and antioxidants as biomarkers of tissue-damage,” Clin Chem, 41: 1819-1828 (1995); Kaur and Geetha, “Screening methods for antioxidants—A review,” Mini-Rev Med Chem, 6: 305-312 (2006)), two assays were employed to measure capacity to inhibit LPO: the ferric thiocyanate (FTC) and the thiobarbituric acid reactive substances (TBARS) methods. With these assays, the autoxidation of linoleic acid (a lipid model) is measured in the absence and, then, presence of different concentration of antioxidants. […] During the oxidation process, peroxide is gradually decomposed to lower molecular-weight compounds such as malondialdehyde (MDA) that is measured by the TBARS method (Kikuzaki and Nakatani, J Food Sci, 58: 1407-1410 (1993)). […]
(§2) The TBARS assay is a widely adopted and sensitive method for measurement of lipid peroxidation (Callaway J K, Beart P M and Jarrott B. “A reliable procedure for comparison of antioxidants in rat brain homogenates.” J Pharmacol Toxicol Meth, 39: 155-162 (1998)). […] The MDA-TBA complex measured by the TBARs assay is a gauge of LOOH formation (Janero D R. “Malondialdehyde and thiobarbituric acid-reactivity as diagnostic indices of lipid peroxidation and peroxidative tissue injury.” Free Rad Biol Med, 9: 515-540 (1990)). […]

A short description of data set [3]: Lipid peroxidation inhibition, thiobarbituric acid reactive substances (TBARS) method. Type of data set: biochemical. The conditions noted are these: inhibition of lipid peroxidation.
Description: as §1, §2

Data set [4] deals with Human retinal ganglial cells (RGC). Description: Viability of retinal ganglial cells (RGC) incubated with glutamate. In kind it is cell-based. To be noted: for effect on RGC viability, compound alone: without glutamate; for RGC killed by glutamate in the presence of the compound: glutamate 5 mM plus compound (three concentrations). The procedure: Human retinal ganglial cells (RGC) were incubated with glutamate (5 mM), the estrogen analogue 3,17-dihydroxyestra-1,3,5(10),9(11)-tetraene (ZYC1) or combination of glutamate and various concentrations of ZYC1.
RGC were treated with glutamate (5 mM) in the presence or absence of ZYC1.

For data set [5] the following is noted: 37° C.
Description: By way of example, conversion of Formula II by NAD(P)H as an endogenous reducing agent was tested. […] At incremental time points, 100 μl aliquots were removed into ice-cold centrifuge tubes, and 100 μl of glacial acetic acid was added. After immediate extraction with ethyl acetate, the organic layer was evaporated under nitrogen stream. […] For the control experiment, no reducing agent was used.
Liquid chromatography separation was done using a Supelco (Bellfonte, Pa.) 5 cm×2.1 mm i.d. Discovery HS C-18 reversed-phase column with 0.25 ml/min water:methanol:2-propanol:acetic acid:dichloromethane (53:35:5:5:2, v/v) as a mobile phase. The sample residues were dissolved in 40 μl of mobile phase, respectively, and 5 μl of the solution was injected for analysis. Mass spectra were recorded on a quadruple ion-trap instrument (LCQ®, ThermoFinnigan, San Jose, Calif.) using positive-ion atmospheric-pressure chemical ionization (APCI) as the method of ionization. MS/MS and MS^3 product-ion scans were obtained after collision-induced dissociation (CID) with helium as the target gas. […] As an internal standard, 1,3,5(10)-estratrien-17α-ethynyl-17β-ol was added before each sample extraction.

“Also recorded” adds a separate entry of the source. Where two headings read alike, the source gives them in different places.

As usually defined, the IC50 is the concentration that gives 50% inhibition. A low value points to inhibition by little substance.

`C[C@]12CC[C@H]3[C@@H](CCC4=CC(=O)C(C56CC7CC(CC(C7)C5)C6)=C[C@@]43O)[C@@H]1CC[C@@H]2O` [2-(1-adamantyl)-10β,17β-dihydroxyestra-1,4-dien-3-one]: the logP in data set [1] (n-octanol/water, shake-flask, read-out: logPexp) was found to be 3.26.

Consider `C[C@]12CC[C@@H]3c4cc(C56CC7CC(CC(C7)C5)C6)c(O)cc4CC[C@H]3[C@@H]1CC[C@@H]2O` [2-(1-adamantyl)-estra-1,3,5(10)-triene-3,17β-diol], for which the IC50 in data set [2] turned out to be 1.5 ± 0.1 µM; in data set [3], 0.75 ± 0.11 µM. The logP in data set [1] was 6.51.

For the molecule `C[C@]12CC[C@@H]3c4ccc(O)cc4C[C@@H](CCCCCCCCC[S+]([O-])CCCC(F)(F)C(F)(F)F)[C@H]3[C@@H]1CC[C@@H]2O` (some centres unmarked) [IC1182,780, reference compound], the “antagonism of ZYC1 protection of RGC” value in data set [4] (glutamate 5 mM, ZYC1 plus various concentrations of estrogen receptor antagonist) is reported as “little antagonism”.

Turning to `C[C@]12CC=C3c4ccc(O)cc4CC[C@H]3[C@@H]1CCC2O` (some centres unmarked) [ZYC1, 3,17-dihydroxyestra-1,3,5(10),9(11)-tetraene], in data set [4], the “effect on RGC viability, compound alone” value is given as “no effect” and the “RGC killed by glutamate in the presence of the compound” value was “killed significantly fewer cells; also recorded: reduced the number of RGC killed by glutamate”.

Turning to `C[C@]12CC[C@@H]3c4cc(C56CC7CC(CC(C7)C5)C6)c(O)cc4CC[C@H]3[C@@H]1CCC2=O` [ZYC3, 2-(1-adamantyl)-3-hydroxyestra-1,3,5(10)-trien-17-one], the 50% inhibitory concentration (IC50) in data set [2] turned out to be 5.3 ± 1.2 µM; in data set [3], 5.8 ± 1.3 µM. Further, the “effect on RGC viability, compound alone” value in data set [4] was “no affect”. For the same molecule, the “RGC killed by glutamate in the presence of the compound” value in data set [4] was “killed significantly fewer cells”.

As for `C[C@]12CC[C@H]3[C@@H](CCC4=CC(=O)C=C[C@@]43O)[C@@H]1CCC2=O` [estrone quinol, 10β-hydroxyestra-1,4-diene-3,17-dione], the rate of conversion in data set [5] (10-fold excess NADPH, 0.1 mM quinol, 0.1M sodium phosphate buffer pH 7.5) turned out to be 6e-07 ± 4e-08 M/min. In addition, in data set [5] (incubation with NADH or NADPH, pH 7.5), the formation of estrone result is reported as “clearly detectable”.

With `N[C@@H](CCC(=O)O)C(=O)O` [glutamate, reference compound], in data set [4] (glutamate 5 mM alone), the “RGC killed by glutamate” value is reported as “about 70%”.
